In patent publication US12172975B2, “1H-indazole carboxamides as receptor-interacting protein kinase 1 inhibitors (RIPK1)” (BRISTOL-MYERS SQUIBB COMPANY, priority 2018, dated 2024) one finds IC50 data, which are given here for 23 molecules.

Counter-ions that a name gives are not always drawn.

Experiment [1] concerns MLKL phosphorylation in HT29-L23 human colorectal adenocarcinoma cells. Nature of the experiment: MLKL Phosphorylation High-Content Assay. It is filed as cell-based. The following applies: Homo sapiens, 6 h, necroptosis induced with TNFα, SMAC mimetic and Z-VAD, read-out: pMLKL (IC50). In outline: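 HT29-L23 cells were induced to necroptosis with TNFα (35 ng/mL), SMAC mimetic (700 nM) and Z-VAD (140 nM) for 6 h at 37 °C. Phospho-MLKL (S358) immunofluorescence was imaged and quantified per cell; maximal inhibition set by Nec-1s (6.25 μM), and IC50/Ymax from 4-parameter logistic fit.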

In experiment [2] the target is His-GST-TVMV-hRIPK1 (1-324) (Homo sapiens (Human), UniProt Q13546). Nature of the experiment: RIPK1 HTRF Binding Assay. Conditions: read-out: RIPK1 HTRF (IC50); FRET probe displacement, 1 h at rt. In general terms: Time-resolved FRET reads energy transfer from a long-lived donor to a nearby acceptor.
Chain of His-GST-TVMV-hRIPK1 (1-324) (Q13546 1-324): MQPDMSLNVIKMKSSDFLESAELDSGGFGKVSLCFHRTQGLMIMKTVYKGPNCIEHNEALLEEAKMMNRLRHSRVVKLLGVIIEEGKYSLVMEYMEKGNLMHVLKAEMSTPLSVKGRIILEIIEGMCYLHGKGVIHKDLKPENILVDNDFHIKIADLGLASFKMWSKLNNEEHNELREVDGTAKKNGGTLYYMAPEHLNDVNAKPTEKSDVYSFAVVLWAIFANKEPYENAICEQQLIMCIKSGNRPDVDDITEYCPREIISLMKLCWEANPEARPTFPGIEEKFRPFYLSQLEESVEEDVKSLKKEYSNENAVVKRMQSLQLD
Experimental: A solution was prepared containing 0.2 nM Anti GST-Tb (Cisbio, 61GSTTLB), 90.6 nM probe and 1 nM His-GST-TVMV-hRIPK1 (1-324) in FRET Buffer (20 mM HEPES, 10 mM MgCl2, 0.015% Brij-35, 4 mM DTT, 0.05 mg/mL BSA). Using Formulatrix Tempest, the detection antibody/enzyme/probe solution (2 mL) was dispensed into wells of a 1536 plate (Black Low Binding Polystyrene 1536 Plate (Corning, 3724)) containing 10 nL of compounds of interest at appropriate concentration in DMSO. The plate was incubated at rt for 1 h. FRET was measured using the EnVision plate reader (Excitation: 340 nm, Emission: 520 nm/495 nM). Total signal (0% inhibition) was calculated from wells containing 10 nL DMSO only.

In general, IC50 refers to the concentration that gives 50% inhibition. With `CNC(=O)c1n[nH]c2cc(-c3cc(C(=O)NCc4cccc(OC(F)(F)F)c4)c(OC)nc3C)ccc12` [Example 160, 6-[6-methoxy-2-methyl-5-({[3-(trifluoromethoxy)-phenyl]methyl}carbamoyl)-pyridin-3-yl]-N-methyl-1H-indazole-3-carboxamide], the 50% inhibitory concentration (IC50) in experiment [1] came to 120 nM; in experiment [2], 27 nM.

Take `CNC(=O)c1n[nH]c2cc(-c3cc(C(=O)NC(C)c4ccccc4OC(F)(F)F)c(C)nc3C)ccc12` (stereo not shown) [Example 162, 6-[2,6-dimethyl-5-({1-[2-(trifluoromethoxy)phenyl]-ethyl}carbamoyl)pyridin-3-yl]-N-methyl-1H-indazole-3-carboxamide]: the IC50 in experiment [1] is 74 nM; in experiment [2], 43 nM.

Consider `[2H]C([2H])([2H])Oc1ncc(-c2ccc3c(C(=O)NCC4CC4)n[nH]c3c2)cc1C(=O)NCCC(=O)OC(C)(C)C` [Example 165, tert-butyl 3-[(5-{3-[(cyclopropyl-methyl)carbamoyl]-1H-indazol-6-yl}-2-(deutero)methoxypyridin-3-yl)formamido]propanoate], for which the figures for the IC50 in experiment [1] and in experiment [2] were 15 nM and 140 nM, respectively.

For `[2H]C([2H])([2H])Oc1ncc(-c2ccc3c(C(=O)NCC4CC4)n[nH]c3c2)cc1C(=O)NC(C)c1cccc(OC(F)(F)F)c1` (stereo not shown) [Example 166, N-(cyclopropylmethyl)-6-[6-(deutero)methoxy-5-({1-[3-(tri-fluoromethoxy)phenyl]ethyl}-carbamoyl)pyridin-3-yl]-1H-indazole-3-carboxamide], the IC50 in experiment [1] was 34 nM; in experiment [2] it was 83 nM.

Regarding `[2H]C([2H])([2H])Oc1ncc(-c2ccc3c(C(=O)NCC4CC4)n[nH]c3c2)cc1C(=O)NC(C)c1ccccc1OC(F)(F)F` (stereo not shown) [Example 168, N-(cyclopropylmethyl)-6-[6-(deutero)methoxy-5-({1-[2-(tri-fluoromethoxy)phenyl]ethyl}-carbamoyl)pyridin-3-yl]-1H-indazole-3-carboxamide], the IC50 in experiment [1] came out at 17 nM; in experiment [2], 38 nM.

Take `COc1ncc(-c2ccc3c(C(=O)NC4CCN(S(C)(=O)=O)CC4)n[nH]c3c2)cc1C(=O)NCc1ccccc1OC(F)(F)F` [Example 169, N-(1-methanesulfonylpiperidin-4-yl)-6-[6-methoxy-5-({[2-(trifluoromethoxy)phenyl]-methyl}carbamoyl)pyridin-3-yl]-1H-indazole-3-carboxamide]: the IC50 in experiment [1] stood at 31 nM; in experiment [2] it was 22 nM.

For `CCNC(=O)c1n[nH]c2cc(-c3cnc(OC)c(C(=O)NCc4ccccc4OC(F)(F)F)c3)ccc12` [Example 170, N-ethyl-6-[6-methoxy-5-({[2-(trifluoromethoxy)phenyl]-methyl}carbamoyl)pyridin-3-yl]-1H-indazole-3-carboxamide], the IC50 in experiment [1] was determined as 23 nM; in experiment [2], 7.9 nM.

`COc1ncc(-c2ccc3c(C(=O)NCC4CC4)n[nH]c3c2)cc1C(=O)NCc1ccccc1OC(F)(F)F` [Example 172, N-(cyclopropylmethyl)-6-[6-methoxy-5-({[2-(trifluoro-methoxy)phenyl]methyl}-carbamoyl)pyridin-3-yl]-1H-indazole-3-carboxamide]: the IC50 in experiment [1] was determined as 28 nM; in experiment [2], 14 nM.

In the case of `CCCCNC(=O)c1n[nH]c2cc(-c3cnc(OC)c(C(=O)NCc4ccccc4OC(F)(F)F)c3)ccc12` [Example 175, N-butyl-6-[6-methoxy-5-({[2-(trifluoromethoxy)phenyl]-methyl}carbamoyl)pyridin-3-yl]-1H-indazole-3-carboxamide], the IC50 in experiment [1] came out at 29 nM; in experiment [2], 9.9 nM.

`CCCNC(=O)c1n[nH]c2cc(-c3cnc(OC)c(C(=O)NCc4ccccc4OC(F)(F)F)c3)ccc12` [Example 176, 6-[6-methoxy-5-({[2-(trifluoro-methoxy)phenyl]methyl}carbam-oyl)pyridin-3-yl]-N-propyl-1H-indazole-3-carboxamide]: the IC50 in experiment [1] came out at 16 nM; in experiment [2], 10 nM.

`COc1ncc(-c2ccc3c(C(=O)NCCCN4CCCC4=O)n[nH]c3c2)cc1C(=O)NCc1ccccc1OC(F)(F)F` [Example 177, 6-[6-methoxy-5-({[2-(trifluoro-methoxy)phenyl]methyl}-carbamoyl)pyridin-3-yl]-N-[3-(2-oxopyrrolidin-1-yl)propyl]-1H-indazole-3-carboxamide]: the IC50 in experiment [1] was found to be 15 nM; in experiment [2] it was 2.9 nM.

Take `COc1ncc(-c2ccc3c(C(=O)NC4CCN(C(C)=O)CC4)n[nH]c3c2)cc1C(=O)NCc1ccccc1OC(F)(F)F` [Example 180, N-(1-acetylpiperidin-4-yl)-6-[6-methoxy-5-({[2-(trifluoro-methoxy)phenyl]methyl}carbam-oyl)pyridin-3-yl]-1H-indazole-3-carboxamide]: the IC50 was found to be 39 nM in experiment [1] and 19 nM in experiment [2].

Consider `COc1ncc(-c2ccc3c(C(=O)NC4CC(=O)N(C(C)C)C4)n[nH]c3c2)cc1C(=O)NCc1ccccc1OC(F)(F)F` (stereo not shown) [Example 181, 6-[6-methoxy-5-({[2-(trifluoro-methoxy)phenyl]methyl}carbam-oyl)pyridin-3-yl]-N-[5-oxo-1-(propan-2-yl)pyrrolidin-3-yl]-1H-indazole-3-carboxamide, TFA], for which the IC50 in experiment [1] worked out at 82 nM; in experiment [2], 27 nM.

Turning to `COc1ncc(-c2ccc3c(C(=O)NCCO)n[nH]c3c2)cc1C(=O)NCc1ccccc1OC(F)(F)F` [Example 182, N-(2-hydroxyethyl)-6-[6-meth-oxy-5-({[2-(trifluoromethoxy)-phenyl]methyl}carbamoyl)-pyridin-3-yl]-1H-indazole-3-carboxamide], the IC50 in experiment [1] amounted to 83 nM; in experiment [2], 12 nM.

For the molecule `[2H]C([2H])([2H])C([2H])([2H])NC(=O)c1n[nH]c2cc(-c3cnc(OC)c(C(=O)NCc4ccccc4OC(F)(F)F)c3)ccc12` [Example 183, N-[(1,1,2,2,2-deutero)ethyl]-6-[6-methoxy-5-({[2-(trifluoro-methoxy)phenyl]methyl}carbam-oyl)pyridin-3-yl]-1H-indazole-3-carboxamide], the IC50 in experiment [1] is 15 nM; in experiment [2] it was 5.9 nM.

As to `CCN(CC)C1CCC(NC(=O)c2n[nH]c3cc(-c4cnc(OC)c(C(=O)NCc5ccccc5OC(F)(F)F)c4)ccc23)CC1` (stereo not shown) [Example 184, N-[4-(diethylamino)cyclohexyl]-6-[6-methoxy-5-({[2-(trifluoro-methoxy)phenyl]methyl}carbam-oyl)pyridin-3-yl]-1H-indazole-3-carboxamide, TFA], the IC50 was determined as 88 nM in experiment [1] and 7 nM in experiment [2].

Take `COc1ncc(-c2ccc3c(C(=O)NC4CCC(N(C)C)CC4)n[nH]c3c2)cc1C(=O)NCc1ccccc1OC(F)(F)F` (stereo not shown) [Example 185, N-[4-(dimethylamino)cyclo-hexyl]-6-[6-methoxy-5-({[2-(trifluoromethoxy)phenyl]-methyl}carbamoyl)pyridin-3-yl]-1H-indazole-3-carboxamide]: the values for the IC50 in experiment [1] and in experiment [2] were 110 nM and 13 nM, respectively.

For `COc1ccccc1N1CC(NC(=O)c2n[nH]c3cc(-c4cnc(OC)c(C(=O)NCc5ccccc5OC(F)(F)F)c4)ccc23)CC1=O` (stereo not shown) [Example 186, 6-[6-methoxy-5-({[2-(trifluoro-methoxy)phenyl]methyl}-carbamoyl)pyridin-3-yl]-N-[1-(2-methoxyphenyl)-5-oxo-pyrrolidin-3-yl]-1H-indazole-3-carboxamide], the IC50 is 13 nM in experiment [1] and 95 nM in experiment [2].

Consider `COc1ncc(-c2ccc3c(C(=O)NC4CC(=O)N(C)C4)n[nH]c3c2)cc1C(=O)NCc1ccccc1OC(F)(F)F` (stereo not shown) [Example 187, 6-[6-methoxy-5-({[2-(trifluoro-methoxy)phenyl]methyl}-carbamoyl)pyridin-3-yl]-N-(1-methyl-5-oxopyrrolidin-3-yl)-1H-indazole-3-carboxamide, TFA], for which the IC50 worked out at 78 nM in experiment [1] and 28 nM in experiment [2].

In the case of `COc1ncc(-c2ccc3c(C(=O)NC4CCC(O)CC4)n[nH]c3c2)cc1C(=O)NCc1ccccc1OC(F)(F)F` (stereo not shown) [Example 189, 6-[6-methoxy-5-({[2-(trifluoro-methoxy)phenyl]methyl}-carbamoyl)pyridin-3-yl]-N-[(1r,4r)-4-hydroxycyclohexyl]-1H-indazole-3-carboxamide], the IC50 in experiment [1] worked out at 30 nM; in experiment [2], 9.6 nM.

For the molecule `[2H]C([2H])([2H])Oc1ncc(-c2ccc3c(C(=O)NC4CC4)n[nH]c3c2)cc1C(=O)N[C@@H]1CN(C(=O)C2CC(F)(F)C2)C[C@@H]1F` [Example 190, N-cyclopropyl-6-(5-{[(3R,4S)-1-(3,3-difluorocyclobutanecarbonyl)-4-fluoropyrrolidin-3-yl]carbamoyl}-6-(deutero)methoxypyridin-3-yl)-1H-indazole-3-carboxamide], the IC50 in experiment [1] amounted to 290 nM; in experiment [2], 100 nM.

`[2H]C([2H])([2H])Oc1ncc(-c2ccc3c(C(=O)NC4CC(F)(F)C4)n[nH]c3c2)cc1C(=O)N[C@@H]1CN(C(=O)C2CC(F)(F)C2)C[C@@H]1F` [Example 191, 6-(5-{[(3R,4S)-1-(3,3-difluorocyclo-butanecarbonyl)-4-fluoropyrrolidin-3-yl]carbamoyl}-6-(deutero)methoxy-pyridin-3-yl)-N-(3,3-difluorocyclo-butyl)-1H-indazole-3-carboxamide]: the results for the IC50 in experiment [1] and in experiment [2] were 89 nM and 120 nM, respectively.

Consider `[2H]C([2H])([2H])Oc1ncc(-c2ccc3c(C(=O)NCC(C)(C)F)n[nH]c3c2)cc1C(=O)N[C@@H]1CN(C(=O)C2CC(F)(F)C2)C[C@@H]1F` [Example 193, 6-(5-{[(3R,4S)-1-(3,3-difluorocyclo-butanecarbonyl)-4-fluoropyrrolidin-3-yl]carbamoyl}-6-(deutero)methoxy-pyridin-3-yl)-N-(2-fluoro-2-methyl-propyl)-1H-indazole-3-carboxamide], for which the half-inhibitory concentration (IC50) worked out at 480 nM in experiment [1] and 260 nM in experiment [2].
